# Laboratory results as given in ChEMBL document CHEMBL6109153, “Development of Membrane-Targeting Osthole Derivatives Containing Pyridinium Quaternary Ammonium Moieties with Potent Anti-Methicillin-Resistant Staphylococcus aureus Properties” (J Med Chem, 2025).
# Activity calls are given as the source filed them. The calls are words filed in the database; no cut-off is given here.
# Assays:
# Staphylococcus aureus [1] = assay: Antibacterial activity against methicillin-resistant Staphylococcus aureus M11 infected in BALB/c mouse model of Sepsis assessed as reduction in hepatic congestion at 10 mg/kg, ip measured after 48 hrs; format: functional, organism-based
# Staphylococcus aureus [2] = assay: Antibacterial activity against methicillin-resistant Staphylococcus aureus M11 infected in BALB/c mouse model of Sepsis assessed as vacuolar degeneration in liver cells at 10 mg/kg, ip measured after 48 hrs; format: functional, organism-based
# Staphylococcus aureus [3] = assay: Antibacterial activity against methicillin-resistant Staphylococcus aureus M11 infected in BALB/c mouse model of Sepsis assessed as reduction in abscess size on back at 4 mg/kg measured after 24 hrs; format: functional, organism-based
# Staphylococcus aureus [4] = assay: Antibacterial activity against methicillin-resistant Staphylococcus aureus M11 infected in BALB/c mouse model of Sepsis assessed as reduction in bacterial count in skin tissues at 4 mg/kg measured after 24 hrs relative to control; format: functional; set-up: scale not given: the % may be the effect or the level left
# Staphylococcus aureus [5] = assay: Antibacterial activity against methicillin-resistant Staphylococcus aureus M11 infected in BALB/c mouse model of Sepsis assessed as reduction in bacterial load in kidney at 20 mg/kg, ip measured after 48 hrs; format: functional
# Staphylococcus aureus [6] = assay: Antibacterial activity against methicillin-resistant Staphylococcus aureus M11 infected in BALB/c mouse model of Sepsis assessed as reduction in redness in inner epidermal abscesses at 4 mg/kg measured after 24 hrs; format: functional, organism-based
# Staphylococcus aureus [7] = assay: Antibacterial activity against methicillin-resistant Staphylococcus aureus M11 infected in BALB/c mouse model of Sepsis assessed as reduction in swelling in inner epidermal abscesses at 4 mg/kg measured after 24 hrs; format: functional, organism-based
# Staphylococcus aureus [8] = assay: Antibacterial activity against methicillin-resistant Staphylococcus aureus M11 infected in BALB/c mouse model of Sepsis assessed as reduction in inflammatory cell infiltration in skin tissues at 4 to 8 mg/kg measured after 24 hrs by H and E staining based analysis; format: functional, organism-based; details: dose 4-8 mg/kg
# Staphylococcus aureus [9] = assay: Induction of bacterial eradication in methicillin-resistant Staphylococcus aureus M11 at 8 times MIC incubated for 8 hrs by time-kill assay; format: functional, organism-based
# Staphylococcus aureus [10] = assay: Antibacterial activity against methicillin-resistant Staphylococcus aureus M11 infected in BALB/c mouse model of Sepsis assessed as reduction in bacterial load in skin tissues at 4 mg/kg measured after 24 hrs; format: functional
# Staphylococcus aureus [11] = assay: Antibacterial activity against methicillin-resistant Staphylococcus aureus M11 infected in BALB/c mouse model of Sepsis assessed as reduction in bacterial load in spleen at 20 mg/kg, ip measured after 48 hrs; format: functional
# [12] = Toxicity in BALB/c mouse model of Sepsis infected with methicillin-resistant Staphylococcus aureus M11 assessed as survival rate at 10 mg/kg, ip measured after 7 days; format: organism-based; details: in vivo, 168 h, time 7 day
# [13] = Toxicity in BALB/c mouse model of Sepsis infected with methicillin-resistant Staphylococcus aureus M11 assessed as survival rate at 5 mg/kg, ip measured after 7 days; format: organism-based; details: in vivo, 168 h, time 7 day
# Staphylococcus aureus [14] = assay: Antibacterial activity against methicillin-resistant Staphylococcus aureus M11 infected in BALB/c mouse model of Sepsis assessed as reduction in bacterial load in skin tissues at 8 mg/kg measured after 24 hrs; format: functional
# Staphylococcus aureus [15] = assay: Antibacterial activity against methicillin-resistant Staphylococcus aureus M11 infected in BALB/c mouse model of Sepsis assessed as reduction in hepatic sinusoidal dilation at 10 mg/kg, ip measured after 48 hrs; format: functional, organism-based
# Staphylococcus aureus [16] = assay: Antibacterial activity against methicillin-resistant Staphylococcus aureus M11 infected in BALB/c mouse model of Sepsis assessed as reduction in bacterial count in skin tissues at 8 mg/kg measured after 24 hrs relative to control; format: functional; set-up: scale not given: the % may be the effect or the level left
# Staphylococcus aureus [17] = assay: Antibacterial activity against methicillin-resistant Staphylococcus aureus M11 infected in BALB/c mouse model of Sepsis assessed as reduction in bacterial load in liver at 20 mg/kg, ip measured after 48 hrs; format: functional
# [18] = Toxicity in BALB/c mouse model of Sepsis infected with methicillin-resistant Staphylococcus aureus M11 assessed as survival rate at 15 mg/kg, ip measured after 7 days; format: organism-based; details: in vivo, 168 h, time 7 day
# Staphylococcus aureus [19] = assay: Induction of cell permeability in methicillin-resistant Staphylococcus aureus M11 assessed as fold increase in fluorescence intensity at 32 times MIC by SYTOX Green dye based analysis relative to control; format: functional
# Staphylococcus aureus [20] = assay: Antibacterial activity against methicillin-resistant Staphylococcus aureus M22 incubated for 16 to 20 hrs by broth microdilution method; format: functional; details: time 16-20 hrs
# Staphylococcus aureus [21] = assay: Antibacterial activity against methicillin-resistant Staphylococcus aureus M23 incubated for 16 to 20 hrs by broth microdilution method; format: functional; details: time 16-20 hrs
# Staphylococcus aureus [22] = assay: Antibacterial activity against methicillin-resistant Staphylococcus aureus M12 incubated for 16 to 20 hrs by broth microdilution method; format: functional; details: time 16-20 hrs
# Staphylococcus aureus [23] = assay: Antibacterial activity against methicillin-resistant Staphylococcus aureus M17 incubated for 16 to 20 hrs by broth microdilution method; format: functional; details: time 16-20 hrs
# Staphylococcus aureus [24] = assay: Antibacterial activity against methicillin-resistant Staphylococcus aureus M11 incubated for 16 to 20 hrs by broth microdilution method; format: functional; details: time 16-20 hrs
# Escherichia coli = assay: Antibacterial activity against Escherichia coli ATCC 25922 incubated for 16 to 20 hrs by broth microdilution method; format: functional; details: time 16-20 hrs
# [25] = Hemolytic activity against sheep erythrocytes; format: toxicity, cell-based, Ovis aries, Erythrocyte
# Staphylococcus aureus [26] = assay: Antibacterial activity against Staphylococcus aureus ATCC 29213 incubated for 16 to 20 hrs by broth microdilution method; format: functional; details: time 16-20 hrs
# Staphylococcus aureus [27] = assay: Antibacterial activity against methicillin-resistant Staphylococcus aureus M20 incubated for 16 to 20 hrs by broth microdilution method; format: functional; details: time 16-20 hrs
# Staphylococcus aureus [28] = assay: Antibacterial activity against methicillin-resistant Staphylococcus aureus M13 incubated for 16 to 20 hrs by broth microdilution method; format: functional; details: time 16-20 hrs
# Staphylococcus aureus [29] = assay: Antibacterial activity against methicillin-resistant Staphylococcus aureus M21 incubated for 16 to 20 hrs by broth microdilution method; format: functional; details: time 16-20 hrs
# Staphylococcus aureus [30] = assay: Antibacterial activity against methicillin-resistant Staphylococcus aureus M14 incubated for 16 to 20 hrs by broth microdilution method; format: functional; details: time 16-20 hrs
# Staphylococcus aureus [31] = assay: Antibacterial activity against methicillin-resistant Staphylococcus aureus M16 incubated for 16 to 20 hrs by broth microdilution method; format: functional; details: time 16-20 hrs
# Staphylococcus aureus [32] = assay: Induction of resistance development in Staphylococcus aureus ATCC 29213 assessed as fold change in MIC at 0.5 times MIC measured after 18 passages by broth microdilution method; format: functional
SMILES,MIC (Staphylococcus aureus [20]) [µg/mL],MIC (Staphylococcus aureus [21]) [µg/mL],MIC (Staphylococcus aureus [22]) [µg/mL],MIC (Staphylococcus aureus [23]) [µg/mL],MIC (Staphylococcus aureus [24]) [µg/mL],MIC (Escherichia coli) [µg/mL],HC50 [25] [µg/mL],MIC (Staphylococcus aureus [26]) [µg/mL],MIC (Staphylococcus aureus [27]) [µg/mL],MIC (Staphylococcus aureus [28]) [µg/mL],MIC (Staphylococcus aureus [29]) [µg/mL],MIC (Staphylococcus aureus [30]) [µg/mL],MIC (Staphylococcus aureus [31]) [µg/mL],other results
CN[C@H](CC(C)C)C(=O)N[C@H]1C(=O)N[C@@H](CC(N)=O)C(=O)N[C@H]2C(=O)N[C@H]3C(=O)N[C@H](C(=O)N[C@H](C(=O)O)c4cc(O)cc(O)c4-c4cc3ccc4O)[C@H](O)c3ccc(c(Cl)c3)Oc3cc2cc(c3O[C@@H]2O[C@H](CO)[C@@H](O)[C@H](O)[C@H]2O[C@H]2C[C@](C)(N)[C@H](O)[C@H](C)O2)Oc2ccc(cc2Cl)[C@H]1O [VANCOMYCIN],–,–,–,–,–,–,–,–,–,–,–,–,–,"Activity (Staphylococcus aureus [1]): inactive; Activity (Staphylococcus aureus [2]): Active; Activity (Staphylococcus aureus [3]): Active; Activity (Staphylococcus aureus [4]): 97.24%; Activity (Staphylococcus aureus [5]): 3.92 log10CFU/ml; Activity (Staphylococcus aureus [6]): Active; Activity (Staphylococcus aureus [7]): Active; Activity (Staphylococcus aureus [8]): Active; Activity (Staphylococcus aureus [9]): Not active; Compound Inhibited Bacterial Growth But Still Showed Surviving Bacteria Within The Detection Range After 8 H, Indicating Incomplete Bacterial Eradication; Activity (Staphylococcus aureus [10]): 1.578 log10CFU/g; Activity (Staphylococcus aureus [11]): 3.88 log10CFU/ml; Survival [12]: 77.8%; Survival [13]: 33.3%; Activity (Staphylococcus aureus [14]): 3.96 log10CFU/g; Activity (Staphylococcus aureus [15]): inactive; Activity (Staphylococcus aureus [16]): 99.989%; Activity (Staphylococcus aureus [17]): 3.54 log10CFU/ml; Survival [18]: 100%"
CC[C@H](C)[C@H](NC(=O)CN)C(=O)NCC(=O)N[C@@H](C)C(=O)N[C@H](C(=O)N[C@@H](CC(C)C)C(=O)N[C@@H](CCCCN)C(=O)N[C@H](C(=O)N[C@@H](CC(C)C)C(=O)N[C@H](C(=O)N[C@H](C(=O)NCC(=O)N[C@@H](CC(C)C)C(=O)N1CCC[C@H]1C(=O)N[C@@H](C)C(=O)N[C@@H](CC(C)C)C(=O)N[C@H](C(=O)N[C@@H](CO)C(=O)N[C@@H](Cc1c[nH]c2ccccc12)C(=O)N[C@H](C(=O)N[C@@H](CCCCN)C(=O)N[C@@H](CCCNC(=N)N)C(=O)N[C@@H](CCCCN)C(=O)N[C@@H](CCCNC(=N)N)C(=O)N[C@@H](CCC(N)=O)C(=O)N[C@@H](CCC(N)=O)C(N)=O)[C@@H](C)CC)[C@@H](C)CC)[C@@H](C)O)[C@@H](C)O)C(C)C)C(C)C [MELITTIN],–,–,–,–,–,–,–,–,–,–,–,–,–,fold change (FC) (Staphylococcus aureus [19]): ~8
CCCN(CCC)C(=O)C[n+]1ccc(SCCCCCOc2ccc3ccc(=O)oc3c2CC=C(C)C)cc1.[Br-],1,2,2,2,1,> 128,> 160,1,1,4,1,1,1,–
CCn1cc(C(=O)O)c(=O)c2cc(F)c(N3CCNCC3)cc21 [NORFLOXACIN],–,–,–,–,–,–,–,–,–,–,–,–,–,fold change (FC) (Staphylococcus aureus [32]): 128
CC(C)=CCc1c(OCCCCCSc2cc[n+](CC(=O)N(C)c3ccccc3)cc2)ccc2ccc(=O)oc12.[Br-],4,2,4,8,2,> 128,> 160,2,2,4,4,2,2,–
CCCCN(CCCC)C(=O)C[n+]1ccc(SCCCOc2ccc3ccc(=O)oc3c2CC=C(C)C)cc1.[Br-],2,2,4,1,1,> 128,> 160,1,1,4,2,1,2,–
CC(C)=CCc1c(OCCCCSc2cc[n+](CC(=O)N(C)c3ccccc3)cc2)ccc2ccc(=O)oc12.[Br-],8,16,8,16,2,> 128,> 160,4,2,8,8,4,4,–
CC(C)=CCc1c(OCCCCSc2cc[n+](CC(=O)N3CCOCC3)cc2)ccc2ccc(=O)oc12.[Br-],32,32,64,32,32,> 128,> 160,32,32,64,32,32,32,–
CCCNC(=O)C[n+]1ccc(SCCCCCOc2ccc3ccc(=O)oc3c2CC=C(C)C)cc1.[Br-],8,4,8,8,2,> 128,190,2,2,8,8,2,2,–
CC(C)=CCc1c(OCCCSc2cc[n+](CC(=O)N(C)c3ccccc3)cc2)ccc2ccc(=O)oc12.[Br-],8,8,16,8,4,> 128,> 160,8,4,16,8,4,8,–
